target: T1, CXCR3 (Homo sapiens, UniProt P49682); experiment: CXCR3 Ca2+ mobilization (FLIPR), stable hCXCR3-CHO cell line, I-TAC stimulated; assay type: cell-based; set-up: host or cells: CHO cells stably expressing hCXCR3; conditions: hCXCR3-CHO cells, I-TAC 100 nM stimulated Ca2+ response; read-out: Ca-ITAC
T1 sequence (P49682 1-368): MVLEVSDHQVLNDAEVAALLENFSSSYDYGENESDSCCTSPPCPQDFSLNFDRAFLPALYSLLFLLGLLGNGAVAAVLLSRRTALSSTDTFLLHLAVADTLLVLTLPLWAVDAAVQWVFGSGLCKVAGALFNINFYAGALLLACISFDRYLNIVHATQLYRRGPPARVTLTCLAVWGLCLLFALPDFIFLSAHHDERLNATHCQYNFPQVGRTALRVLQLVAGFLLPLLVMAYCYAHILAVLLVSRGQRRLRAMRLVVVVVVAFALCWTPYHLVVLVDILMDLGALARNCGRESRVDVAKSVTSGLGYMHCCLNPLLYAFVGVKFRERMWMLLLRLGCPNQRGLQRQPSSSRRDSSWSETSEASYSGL
Protocol: Human chinese hamster ovary (CHO) cell line stably expressing hCXCR3 was purchased from Euroscreen (Belgium) and culture in HAM's F12 (Invitrogen) containing 10% heat inactivated fetal calf serum (Cancerra, Australia), 50 units ml−1 penicillin, 50 μml−1 streptomycin, (Invitrogen, USA) and 400 μg/ml geneticin (G418) (Calbiochem, San Diego), according to the manufacturer.
CXCR3Ca^2+ mobilization was measured using a stable hCXCR3—CHO cell line and a microtiter-plate based assay using FLIPR^TETRA™ (Molecular Devices). In more detail, cells were harvested and plated into black 384-well plates (Becton-Dickinson) at a density of 15 000 cells per well and grown in the incubator for 18 hours. On the next day the media was aspirated and replaced with the cell loading buffer (HBSS—(Invitrogen) based buffer containing calcium indicator and signal enhancer from a commercial Ca2+ assay kit (Becton Dickinson). The plates were incubated for 60 minutes in the incubator, the test compounds were added and the plates equilibrated for 20 minutes at room temperature.
Plates were placed into FLIPR and the CXCR3 agonist (I-TAC, 100 nM) stimulated fluorescence change was quantitated. The activity of CXCR3 antagonists was determined as percent of the CXCR3 ligand I-TAC in the absence of the test compounds (=100% activity).

Compound	IC50 [µM]
O=C(NCC1CC1)c1ccc(CN(Cc2ccccn2)S(=O)(=O)c2ccc(Cl)c(Cl)c2)cc1 [Example 45]	13
O=S(=O)(c1ccc(Cl)cc1)N(Cc1ccc(-c2nnn[nH]2)cc1)Cc1ccccc1-c1ccccc1 [Example 103]	3.45
CCOc1ccc(C2(NC(=O)c3ccc(CN(Cc4ccccn4)S(=O)(=O)c4ccc(Cl)cc4)cc3)CC2)cc1 [Example 128]	0.85
O=C(O)c1ccc(CNC(=O)c2ccc(CN(Cc3ccccn3)S(=O)(=O)c3ccc(Cl)cc3)cc2)cc1 [Example 133]	2
CCOc1ccc(S(=O)(=O)N(Cc2ccc(C(=O)NC3(c4cccc(C#N)c4)CC3)cc2)Cc2ccccn2)cc1 [Example 85]	4
CCOc1ccc(S(=O)(=O)N(Cc2ccc(C(=O)N[C@H]3[C@@H]4CN(C(=O)c5ccc(OC(F)(F)F)cc5)C[C@@H]43)cc2)Cc2cccnc2)cc1 [Example 116]	2
COc1cccc(CN(Cc2ccc(C(=O)NCc3ccccc3)cc2)S(=O)(=O)c2ccc(Cl)cc2)c1 [Example 38, 4-{[(4-Chloro-benzenesulfonyl)-(3-methoxybenzyl)-amino]-methyl}-N-phenyl methyl benzamide]	10
O=C(NC1(c2ccccc2)CC1)c1ccc(CN(Cc2ccccn2)S(=O)(=O)c2ccc(Cl)c(Cl)c2)cc1 [Example 46]	0.705
O=S(=O)(c1ccc(Cl)cc1)N(Cc1ccc(-c2nnn[nH]2)cc1)Cc1cc(Cl)ccc1F [Example 61, 4-chloro-N-(5-chloro-2-fluorobenzyl)-N-[4-(2H-tetrazol-5-yl)benzyl]benzene sulfonamide]	0.2
O=C(NCc1ccccc1)c1ccc(CN(Cc2ccccc2)S(=O)(=O)c2ccc(Cl)nc2)cc1 [Example 36]	0.15
O=C(NS(=O)(=O)c1cccnc1)c1ccc(CN(Cc2ccccn2)S(=O)(=O)c2ccc(Cl)cc2)cc1 [Example 52, N-(3-pyridylsulfonyl)-4-{[[(4-chlorophenyl)sulfonyl](pyridin-2-ylmethyl)amino]methyl}benzamide]	0.285
CCOc1ccc(S(=O)(=O)N(Cc2ccc(C(=O)NCCc3ccc(S(N)(=O)=O)cc3)cc2)Cc2cccnc2)cc1 [Example 95]	2
CCOc1ccc(C2(NC(=O)c3ccc(CN(Cc4ccccn4)S(=O)(=O)c4ccc(C#N)cc4)cc3)CC2)cc1 [Example 129]	2.5
Cc1cc(S(=O)(=O)N(Cc2ccc(-c3nnn[nH]3)cc2)Cc2ccccn2)c(F)cc1Cl [Example 79]	4
CCOc1ccc(S(=O)(=O)N(Cc2ccc(C(=O)N[C@H]3[C@@H]4CN(C(=O)c5ccc(OC(F)(F)F)cc5)C[C@@H]43)cc2)Cc2ccccn2)cc1 [Example 117, 4-{[(4-Ethoxy-benzenesulfonyl)-pyridin-2-ylmethyl-amino]-methyl}-N-[(1S,5R,6S)-3-(4-trifluoromethoxy-benzoyl)-3-aza-bicyclo[3.1.0]hex-6-yl]-benzamide]	0.8
Cc1ccc(S(=O)(=O)N(Cc2ccc(-c3nnn[nH]3)cc2)Cc2ccccn2)cc1 [Example 139]	2
COc1ccc(CN(Cc2ccc(C(=O)NCc3ccccc3)cc2)S(=O)(=O)c2ccc(Cl)cc2)cc1 [Example 35, 4-{[(4-Chloro-benzenesulfonyl)-(4-methoxybenzyl)-amino]-methyl}-N-phenyl methyl benzamide]	6
O=S(=O)(c1ccc(Cl)cc1Cl)N(Cc1ccc(-c2nnn[nH]2)cc1)Cc1ccccn1 [Example 78]	3
CCOc1ccc(C2(NC(=O)c3ccc(CN(Cc4ccccn4)S(=O)(=O)c4ccc(OCC)cc4)cc3)CC2)cc1 [Example 130]	3
CCOc1ccc(S(=O)(=O)N(Cc2ccc(C(=O)N[C@H]3[C@@H]4CN(C(C)=O)C[C@@H]43)cc2)Cc2cccnc2)cc1 [Example 108]	1.8
CC(C)(C)c1ccc(S(=O)(=O)N(Cc2ccc(-c3nnn[nH]3)cc2)Cc2ccccn2)cc1 [Example 141]	3
CC(CNC(=O)c1ccc(CN(Cc2cccnc2)S(=O)(=O)c2ccc(C#N)cc2)cc1)c1ccccc1 (stereo not shown) [Example 112]	1.25
O=S(=O)(c1ccc(Cl)cc1)N(Cc1ccc(-c2nnn[nH]2)cc1)Cc1ccccc1Oc1ccc(F)cc1 [Example 104]	1

The next lines start with the values.

IC50 [µM]	Compound
3	CN(C)c1ccc(CNC(=O)c2ccc(CN(Cc3ccccn3)S(=O)(=O)c3ccc(C#N)cc3)cc2)cn1 [Example 148]
13	CCOC(=O)c1ccc(CN(Cc2ccccn2)S(=O)(=O)c2ccc(OCC)cc2)cc1 [Example 191]
1.5	O=S(=O)(c1ccc(Cl)cc1)N(Cc1ccccc1)Cc1cccc(-c2nnn[nH]2)c1 [Example 234]
10	O=C(NC1(c2ccccc2)CC1)c1ccc(CN(Cc2ccc3cccnc3n2)S(=O)(=O)c2ccc(Cl)cc2)cc1 [Example 330]
20	O=S(=O)(c1ccc(Cl)cc1)N(Cc1ccc(-c2nnn[nH]2)cc1)Cc1ccccc1-n1cccn1 [Example 280]
1.5	Cc1ccc(S(=O)(=O)N(Cc2ccc(C#N)cc2)Cc2ccccn2)cc1 [Example 174]
5.5	N#Cc1ccc(S(=O)(=O)N(Cc2ccc(C(=O)NC3(c4ccc(OC(F)(F)F)cc4)CC3)cc2)Cc2ccccn2)cc1 [Example 282]
20	O=C(O)c1ccc(CN(Cc2cnccn2)S(=O)(=O)c2ccc(Cl)cc2)cc1 [Example 319]
4	O=C(N[C@@H](Cc1ccc(O)cc1)C(=O)O)c1ccc(CN(Cc2ccccn2)S(=O)(=O)c2ccc(Cl)cc2)cc1 [Example 154]
12	N#Cc1ccc(S(=O)(=O)N(Cc2ccc(NC(=O)Cc3nnn[nH]3)cc2)Cc2ccccn2)cc1 [Example 300]
1	O=C(Nc1ccc(CN(Cc2ccccn2)S(=O)(=O)c2ccc(Cl)cc2)cc1)C(O)c1cccc(Cl)c1 (stereo not shown) [Example 184]
7.5	CCOc1ccc(S(=O)(=O)N(Cc2ccc(C(=O)NC3(c4ccc(OC(F)(F)F)cc4)CC3)cc2)Cc2ccccn2)cc1 [Example 283]
3.5	Cc1cccc(S(=O)(=O)N(Cc2ccc(C#N)cc2)Cc2ccccn2)c1 [Example 175]
5.5	N#Cc1ccc(CN(C2CCc3cc(Cl)ccc32)S(=O)(=O)c2ccc(Cl)cc2)cc1 (stereo not shown) [Example 299]
13	N#Cc1ccccc1CN(Cc1ccccn1)S(=O)(=O)c1ccc(Cl)cc1 [Example 196]
10	N#Cc1ccc(CN(C(=O)c2ccccn2)S(=O)(=O)c2ccc(Cl)cc2)cc1 [Example 279, 4-Chloro-N-(4-cyano-benzyl)-N-(pyridine-2-carbonyl)-benzenesulfonamide]

IC50 [µM]	Compound
2.01	O=S(=O)(c1ccc(Cl)cc1)N(CCc1ccccc1)Cc1ccc(-c2nnn[nH]2)cc1 [Example 204]
2	CCOC(=O)c1ccc(CN(Cc2cccnc2)S(=O)(=O)c2ccc(OCC)cc2)cc1 [Example 155]
15	N#Cc1ccc(CN(Cc2ccccn2)S(=O)(=O)c2cccc(Cl)c2)cc1 [Example 313]
4	O=C(NC1(c2ccccc2)CC1)c1ccc(CN(Cc2cnccn2)S(=O)(=O)c2ccc(Cl)cc2)cc1 [Example 187]
2.8	O=S(=O)(c1ccc(Cl)cc1)N(Cc1cccc(-c2nnn[nH]2)c1)Cc1ccccn1 [Example 228]
0.75	O=C(N[C@H](C(=O)O)c1ccccc1)c1ccc(CN(Cc2ccccn2)S(=O)(=O)c2ccc(Cl)cc2)cc1 [Example 152]
7	CCOc1ccc(S(=O)(=O)N(Cc2ccc(C(=O)O)c(OC)c2)Cc2ccccn2)cc1 [Example 346]
2	O=C(N[C@H](Cc1ccccc1)C(=O)O)c1ccc(CN(Cc2ccccn2)S(=O)(=O)c2ccc(Cl)cc2)cc1 [Example 153]
1.7	O=S(=O)(c1ccc(Cl)cc1)N(CCCc1ccccc1)Cc1ccc(-c2nnn[nH]2)cc1 [Example 221]
7	Cc1ccccc1S(=O)(=O)N(Cc1ccc(C#N)cc1)Cc1ccccn1 [Example 287]
0.7	N#Cc1ccc(CN(Cc2ccccn2)S(=O)(=O)c2ccc([N+](=O)[O-])cc2)cc1 [Example 172]
4	N#Cc1ccc(CCN(Cc2ccccn2)S(=O)(=O)c2ccc(Cl)cc2)cc1 [Example 286, 4-Chloro-N-[2-(4-cyano-phenyl)-ethyl]-N-pyridin-2-ylmethyl-benzenesulfonamide]
25	O=S(=O)(c1ccccc1Oc1ccccc1)N(Cc1ccc(-c2nnn[nH]2)cc1)Cc1ccccn1 [Example 237]
13	COc1cc(OC)nc(CN(Cc2ccc(C(=O)O)cc2)S(=O)(=O)c2ccc(Cl)cc2)n1 [Example 328]
0.4	N#Cc1ccc(CN(Cc2ccccn2)S(=O)(=O)c2ccccc2[N+](=O)[O-])cc1 [Example 173]
6	CCOc1ccc(S(=O)(=O)N(Cc2ccc(Oc3ccncc3)cc2)Cc2ccccn2)cc1 [Example 270]

From patent US20110028509A1, “Sulfonamides” (MERCK SERONO SA, priority 2008, published 2011)
